Assay results published in patent US8415376B2, “Inhibitors of PI3 kinase” (Amgen Inc., priority 2008, dated 2013).

Columns and labels:
mTOR = target: T1, mTOR (Homo sapiens, UniProt P42345); experiment: In vitro mTOR assay (Lanthascreen); format: biochemical; conditions: average if run more than once
T1 construct: purchased Invitrogen (Carlsbad, Calif.)
How it was run: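 mTOR activity measured by TR-FRET as Thr46 phosphorylation of GFP-4E-BP1, detected with Tb-labelled anti-phospho-4E-BP1 [T46] antibody after EDTA stop. Final 50 ng/mL mTOR, 400 nM GFP-4E-BP1, 7 μM ATP in HEPES pH 7.5 with 10 mM MnCl2; 1 h, room temperature. 10-point 1:3 compound series.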

[1] = tested on: phosphorylation of Akt at Serine 473; experiment: pAkt AlphaScreen (U87 cell); format: cell-based; conditions: Homo sapiens, U-87 MG; U87 MG cells, pAkt Ser473; average
Protocol: pAkt Alphascreen (U87 Cell)
The pAkt AlphaScreen® assay (PerkinElmer, Waltham, Mass.) determines whether there is phosphorylation of Akt at Serine 473 by recruitment of a phosphospecific antibody. This assay was performed using U87 MG cells. The U87 growth media consists of MEM (Gibco, Carlsbad, Calif.) supplemented with 10% FBS (Gibco,), 1× Non-Essential Amino Acids (Gibco,) and 1× Penicillin/Streptomycin/Glutamine (Gibco). The cells were maintained weekly using 0.05% Trypsin (Gibco) and replated in 150 mm TC-Treated Culture Dishes (Corning, Corning, N.Y.).
The first day of the assay, the adherent cells were trypsinized, media was added to the loose cells and cells were mixed to a homogenous mixture. 0.5 ml of the homogenous mixture was counted on the Beckman Coulter® Vi-CELL™ XR (Fullerton, Calif.). 50 frames of cells were counted and the number of viable cells was determined. The cells were then diluted to 0.25 million cells per ml, and centrifuged at 200 rcf for 5 minutes. The media was removed and the cells were reconstituted in fresh media for plating. The cells were plated at 20 μl per well on the PerkinElmer® FlexDrop PLUS in Low Volume 384 Well White Tissue Culture Plates (Corning) with a final cell density of 5K cells per well. The plates were incubated overnight at 37° Celsius, 5% CO2.
On the second day, the compound plates were prepared, the cells were treated with compound and the pAkt reaction mix was added to the cell lysate. 384 well compound plates were prepared containing 1 μl of compound per well starting at 5 mM and diluted 1:2 across the row, resulting in a 22 well serial dilution. 39 μl of growth media was added to the compound plate in rows 1-22 using the PerkinElmer® FlexDrop PLUS resulting in a DMSO concentration of 2.5%. The cell plates and diluted compound plates were put onto the VELOCITY11™ VPREP™ 384 ST where the compound plate was mixed and 5 μl of serially diluted compound or controls was added to the cell plate. The final concentration of the compounds was 25 μM serially diluted to 11.9 pM in 0.5% DMSO. The cell plates were then incubated with compound for two hours at 37° Celsius, 5% CO2. After two hours, the media in the cell plates was aspirated using the BioTek® ELx405HT plate washer (Winooski, Vt.) removing the majority of media and compound without disturbing the adherent U87 cells. The following assay reagents are components of the SureFire® Akt (Ser 473) Phosphorylation 50K Point Kit (TGR BioSciences, Adelaide, Austalia) and an IgG Detection Kit (PerkinElmer, Waltham, Mass.). 5 μl of 1× Lysis Buffer was added to each well using the PerkinElmer® FlexDrop PLUS. The plates were then incubated at room temperature on a shaker for ten minutes. The AlphaScreen® reaction was prepared under low light conditions (subdued or green light) including p-Akt (Ser 473) Reaction Buffer, Dilution Buffer, Activation Buffer, Acceptor Beads and Donor Beads at a ratio of 40:20:10:1:1 respectively. The AlphaScreen® reaction was added to the cell lysate at 6 μl per well using the PerkinElmer® FlexDrop PLUS. The plates were placed in a humid environment to reduce edge effects and incubated overnight at room temperature with restricted air flow in the dark.
On the final day of the experiment, the plates were read on the PerkinElmer® EnVision™ 2103 Multilable Reader using the standard AlphaScreen® readout. The POC is calculated and the data is analyzed to report the IC50 IP for pAkt at Serine 473.
Activity data for the compounds tested in the PI3K cell based Akt assay is provided in Table 2 under the column heading U87

PI3Kα = target: T2, PI3Kα (Homo sapiens, UniProt P42336); experiment: In vitro PI3K AlphaScreen assay; format: biochemical; conditions: average if run more than once
T2 construct: Full length p110 subunits of PI3K α, β and δ, N-terminally labeled with polyHis tag; polyHis (N); made in house; host or cells: Sf9 insect cells (baculovirus)
T2 sequence (P42336 whole entry): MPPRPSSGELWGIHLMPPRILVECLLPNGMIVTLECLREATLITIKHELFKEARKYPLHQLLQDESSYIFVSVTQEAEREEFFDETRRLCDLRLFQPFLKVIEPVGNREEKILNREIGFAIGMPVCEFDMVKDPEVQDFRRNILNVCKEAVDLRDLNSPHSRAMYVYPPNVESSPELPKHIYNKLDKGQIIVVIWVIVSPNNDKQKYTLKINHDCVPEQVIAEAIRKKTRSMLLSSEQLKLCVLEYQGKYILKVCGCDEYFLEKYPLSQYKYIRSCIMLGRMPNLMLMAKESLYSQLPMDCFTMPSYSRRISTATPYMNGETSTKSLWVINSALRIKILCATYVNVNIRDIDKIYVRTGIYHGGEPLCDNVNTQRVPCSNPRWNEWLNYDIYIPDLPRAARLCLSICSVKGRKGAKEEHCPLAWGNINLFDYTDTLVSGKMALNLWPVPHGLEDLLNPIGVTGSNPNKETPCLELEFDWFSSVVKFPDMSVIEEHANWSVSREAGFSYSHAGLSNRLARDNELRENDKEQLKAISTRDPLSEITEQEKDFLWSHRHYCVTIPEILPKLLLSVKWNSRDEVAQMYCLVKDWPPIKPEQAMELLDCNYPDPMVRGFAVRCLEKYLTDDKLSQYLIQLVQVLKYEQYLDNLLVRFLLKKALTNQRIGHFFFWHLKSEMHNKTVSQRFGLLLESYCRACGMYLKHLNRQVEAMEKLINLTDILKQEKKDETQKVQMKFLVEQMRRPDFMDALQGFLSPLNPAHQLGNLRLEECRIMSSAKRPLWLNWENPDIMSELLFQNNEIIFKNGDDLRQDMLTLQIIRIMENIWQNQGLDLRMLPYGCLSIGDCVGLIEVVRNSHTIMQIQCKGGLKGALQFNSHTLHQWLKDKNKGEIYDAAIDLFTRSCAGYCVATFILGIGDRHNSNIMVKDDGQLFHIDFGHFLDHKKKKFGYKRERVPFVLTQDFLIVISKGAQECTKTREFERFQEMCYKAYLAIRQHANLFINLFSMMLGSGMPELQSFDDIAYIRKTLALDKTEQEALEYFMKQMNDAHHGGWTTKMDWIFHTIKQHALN
T2 sequence (P27986 whole entry partner): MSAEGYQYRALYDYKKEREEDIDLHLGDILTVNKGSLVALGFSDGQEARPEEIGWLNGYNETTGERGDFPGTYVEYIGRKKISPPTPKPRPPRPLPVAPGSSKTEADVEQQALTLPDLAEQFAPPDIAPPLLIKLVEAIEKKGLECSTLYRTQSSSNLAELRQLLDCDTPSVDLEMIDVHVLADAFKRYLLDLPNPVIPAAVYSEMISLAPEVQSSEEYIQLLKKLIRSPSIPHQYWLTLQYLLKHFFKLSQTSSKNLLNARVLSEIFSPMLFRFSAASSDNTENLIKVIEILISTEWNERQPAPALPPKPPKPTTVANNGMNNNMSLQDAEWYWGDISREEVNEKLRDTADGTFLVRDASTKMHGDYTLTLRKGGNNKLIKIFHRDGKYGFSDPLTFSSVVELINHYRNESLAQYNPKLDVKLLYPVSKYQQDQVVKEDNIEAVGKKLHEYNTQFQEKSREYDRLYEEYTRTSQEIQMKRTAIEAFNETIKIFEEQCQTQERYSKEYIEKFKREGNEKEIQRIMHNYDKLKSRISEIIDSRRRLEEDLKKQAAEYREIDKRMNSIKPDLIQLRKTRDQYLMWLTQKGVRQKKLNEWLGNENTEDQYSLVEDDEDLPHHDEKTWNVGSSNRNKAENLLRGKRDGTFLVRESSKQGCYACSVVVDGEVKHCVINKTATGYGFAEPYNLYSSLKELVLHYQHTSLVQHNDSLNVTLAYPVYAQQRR
Protocol: In Vitro PI3K Alphascreen® Assay
The PI3K AlphaScreen® assay (PerkinElmer, Waltham, Mass.) measures the activity of a panel of four phosphoinositide 3-kinases: PI3Kα, PI3Kβ, PI3Kγ, and PI3Kδ. Each of these enzymes phosphorylates the 3′-hydroxyl group on phosphatidylinositiol (4,5)-bisphosphate (PIP2) to produce phosphatidylinositol (3,4,5)-trisphosphate (PIP3). This phosphorylation activity is measured using a GST-tagged PIP3 binding protein (Echelon Biosciences, Salt Lake City, Utah), an anti-GST-tagged Acceptor bead, and streptavidin-Donor bead. […] In the absence of this interaction, proximity of the Donor and Acceptor beads is decreased, producing a loss of luminescent signal which is inversely proportional to PI3K activity.
The enzyme reaction buffer is made using sterile water (Baxter, Deerfield, Ill.) and 50 mM Tris HCl pH 7, 14 mM MgCl2, 2 mM sodium cholate, and 100 mM NaCl. 2 mM DTT is added fresh the day of the experiment. The AlphaScreen® reaction buffer is made using sterile water and 10 mM Tris HCl pH 7.5, 150 mM NaCl, 0.10% Tween 20, and 30 mM EDTA. 1 mM DTT is added fresh the day of the experiment.
The source plates for this assay are 384-well Greiner clear polypropylene plates containing test compounds at 5mM and diluted 1:2 over 22 points. […] Source plates are replicated into 384-well Optiplates (PerkinElmer, Waltham, Mass.), 0.5 μL/well, to make assay-ready plates.
The different PI3K isoforms are each diluted in enzyme reaction buffer to 2× working solutions. […] Two different 2× substrate solutions are made in enzyme reaction buffer. In one solution, PI(4,5)P2 (Echelon Biosciences, Salt Lake City, Utah) is diluted to 10 μM and ATP is diluted to 20 μM. This solution is used in the assays testing PI3Kα and PI3Kβ. In a second solution, PI(4,5)P2 is diluted to 10 μM and ATP is diluted to 8 μM. This solution used in the assays testing PI3Kγ and PI3Kδ.
The AlphaScreen® reaction solutions are made using beads from the anti-GST AlphaScreen® kit (PerkinElmer, Waltham, Mass.). Two solutions are made in Alphascreen reaction buffer to 4× working concentrations. In one solution, biotinylated-IP4 (Echelon Biosciences, Salt Lake City, Utah) is diluted to 40 nM and streptavadin-Donor Beads are diluted to 80 μg/mL. In the second solution, PIP3-binding protein (Echelon Biosciences, Salt Lake City, Utah) is diluted to 40 nM and anti-GST-Acceptor Beads are diluted to 80 μg/mL. 10 μL/well of enzyme reaction buffer is added to Column 24 of the assay ready plates in place of enzyme. This is done for plates in the PI3Kα, β, and 67 assays.
Using a 384-well dispensing Multidrop (Titertek, Huntsville, Ala.), 10 μL/well of 2× enzyme (PI3Kα, β, δ) is added to Columns 1-23 of the appropriate assay ready plates (for PI3Kγ 10 μL is added to Columns 1-24). 10 μL/well of the appropriate substrate solution (the solution with 20 μM ATP for PI3Kα and β assays, and the solution with 8 μM ATP for PI3Kγ and δ assays) is then added to Columns 1-24 of the plates. Plates are then incubated at room temperature for 20 minutes.
In the dark, 10 μL/well of the Donor Bead solution is added to Columns 1-24 of the plates to quench the enzyme reaction. The plates are incubated at room temperature for 30 minutes. Still in the dark, 10 μL/well of the Acceptor Bead solution is also added to Columns 1-24 of the plates. The plates are then incubated in the dark for 1.5 hours. The plates are read on an Envision Multilabel Plate Reader (PerkinElmer, Waltham, Mass.) with a 680 nm excitation filter and a 520-620 nm emission filter.

T1 sequence (P42345 1360-2549 limits assumed): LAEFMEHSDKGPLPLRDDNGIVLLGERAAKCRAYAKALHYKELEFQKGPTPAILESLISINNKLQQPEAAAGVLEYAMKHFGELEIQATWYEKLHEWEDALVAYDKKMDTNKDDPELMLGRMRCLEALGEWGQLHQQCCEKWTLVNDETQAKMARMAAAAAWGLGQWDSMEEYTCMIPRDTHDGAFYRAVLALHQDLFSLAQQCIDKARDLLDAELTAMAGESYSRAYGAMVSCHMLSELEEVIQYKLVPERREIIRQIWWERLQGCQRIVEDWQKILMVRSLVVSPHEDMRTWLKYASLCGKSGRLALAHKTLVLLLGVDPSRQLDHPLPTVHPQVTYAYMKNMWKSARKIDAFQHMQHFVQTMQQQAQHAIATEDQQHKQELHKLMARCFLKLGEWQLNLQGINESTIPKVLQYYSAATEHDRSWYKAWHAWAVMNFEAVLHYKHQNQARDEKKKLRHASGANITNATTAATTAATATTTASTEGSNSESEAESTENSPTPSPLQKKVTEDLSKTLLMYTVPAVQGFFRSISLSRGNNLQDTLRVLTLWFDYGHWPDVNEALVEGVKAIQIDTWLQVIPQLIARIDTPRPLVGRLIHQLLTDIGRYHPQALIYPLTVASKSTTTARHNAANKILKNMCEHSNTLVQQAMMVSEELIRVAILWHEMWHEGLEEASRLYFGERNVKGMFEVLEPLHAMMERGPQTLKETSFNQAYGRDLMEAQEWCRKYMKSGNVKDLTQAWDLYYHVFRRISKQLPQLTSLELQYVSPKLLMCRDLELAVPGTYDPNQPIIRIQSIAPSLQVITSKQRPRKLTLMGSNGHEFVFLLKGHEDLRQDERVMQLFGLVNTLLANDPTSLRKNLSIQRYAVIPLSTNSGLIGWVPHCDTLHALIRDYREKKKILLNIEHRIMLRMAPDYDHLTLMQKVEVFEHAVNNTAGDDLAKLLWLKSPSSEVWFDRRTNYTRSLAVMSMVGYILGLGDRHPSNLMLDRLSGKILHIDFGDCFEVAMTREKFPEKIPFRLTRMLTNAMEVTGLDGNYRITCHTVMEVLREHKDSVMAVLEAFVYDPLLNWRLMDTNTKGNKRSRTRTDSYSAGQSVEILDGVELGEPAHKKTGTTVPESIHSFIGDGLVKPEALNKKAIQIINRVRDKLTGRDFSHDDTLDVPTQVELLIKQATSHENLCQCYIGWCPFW

SMILES | IC50 (mTOR) [µM] | IC50 [1] [µM] | Ki (PI3Kα) [µM]
COCCN(C)S(=O)(=O)Nc1cc(-c2ccc3ncc(=O)n(-c4ccccc4)c3c2)cnc1Cl [Example 131, N-(2-chloro-5-(3-oxo-4-phenyl-3,4-dihydroquinoxalin-6-yl)pyridin-3-yl) 2-methoxy-N-methylethanaminosulfonamide] | 0.0076 | 0.0092 | 0.0032
CC1(C)CN(c2ccnc3ccc(-c4cnc(Cl)c(NS(C)(=O)=O)c4)cc23)CCO1 [Example 90, N-(2-chloro-5-(4-(2,2-dimethyl-4-morpholinyl)-6-quinolinyl)-3-pyridinyl)methanesulfonamide] | 0.0044 | 0.0484 | 0.0107
CS(=O)(=O)Nc1cc(-c2ccc3nccc(-c4ccnc(C(F)(F)F)c4)c3c2)cnc1Cl [Example 111, N-(2-chloro-5-(4-(2-(trifluoromethyl)-4-pyridinyl)-6-quinolinyl)-3-pyridinyl)methanesulfonamide] | 0.0028 | 0.0261 | 0.003
CN(C)S(=O)(=O)Nc1cc(-c2ccc3nccc(N4CCOCC4)c3c2)cnc1Cl [Example 122, N′-(2-Chloro-5-(4-(4-morpholinyl)-6-quinolinyl)-3-pyridinyl)-N,N-dimethylsulfamide] | 0.0182 | 0.0163 | 0.0065
CCN(CCC#N)c1ccnc2ccc(-c3cnc(Cl)c(NS(C)(=O)=O)c3)cc12 [Example 78, N-(2-chloro-5-(4-((2-cyanoethyl)(ethyl)amino)-6-quinolinyl)-3-pyridinyl)methanesulfonamide] | 0.0117 | 0.193 | 0.0276
COc1ccc(-n2c(=O)cnc3ccc(-c4cnc(Cl)c(NS(=O)(=O)N(C)C)c4)cc32)cn1 [Example 132, N-(2-chloro-5-(4-(6-methoxypyridin-3-yl)-3-oxo-3,4-dihydroquinoxalin-6-yl)pyridin-3-yl)dimethylaminosulfonamide] | 0.0023 | 0.0408 | 0.0022
CS(=O)(=O)Nc1cc(-c2ccc3ncc(N4CCOCC4)nc3c2)cnc1Cl [Example 92, N-(2-chloro-5-(3-(4-morpholinyl)-6-quinoxalinyl)-3-pyridinyl)methanesulfonamide] | 0.0283 | 0.084 | 0.0028
CS(=O)(=O)Nc1cc(-c2ccc3nccc(NC4CCNCC4)c3c2)cnc1Cl [Example 88, N-(2-chloro-5-(4-(4-piperidinylamino)-6-quinolinyl)-3-pyridinyl)methanesulfonamide] | 1.77 | 6.84 | 0.161
COC(C)(C)CNc1ccnc2ccc(-c3cnc(Cl)c(NS(C)(=O)=O)c3)cc12 [Example 79, N-(2-chloro-5-(4-((2-methoxy-2-methylpropyl)amino)-6-quinolinyl)-3-pyridinyl)methanesulfonamide] | 0.363 | 2.83 | 0.0823
O=S(=O)(Nc1cc(-c2ccc3nccc(OC4CCSC4)c3c2)cnc1Cl)c1ccc(F)cc1 (stereo not drawn) [Example 108, N-(2-chloro-5-(4-(tetrahydro-3-thiophenyloxy)-6-quinolinyl)-3-pyridinyl)-4-fluorobenzenesulfonamide] | 0.0079 | 0.306 | 0.0023
CS(=O)(=O)Nc1cc(-c2ccc3nccc(-c4ccc(C(F)(F)F)nc4)c3c2)cnc1Cl [Example 112, N-(2-chloro-5-(4-(6-(trifluoromethyl)-3-pyridinyl)-6-quinolinyl)-3-pyridinyl)methanesulfonamide] | 0.0021 | 0.0091 | 0.0021
O=S(=O)(Nc1cc(-c2ccc3nccc(N4CCOCC4)c3c2)cnc1Cl)N1CCOCC1 [Example 124, N-(2-chloro-5-(4-morpholinoquinolin-6-yl)pyridin-3-yl)morpholine-4-sulfonamide] | 0.0143 | 0.0399 | 0.0046
C[C@@H]1CN(c2ccnc3ccc(-c4cnc(Cl)c(NS(=O)(=O)c5ccc(F)cc5)c4)cc23)C[C@H](C)O1 [Example 96, N-(2-chloro-5-(4-((2R,6S)-2,6-dimethyl-4-morpholinyl)-6-quinolinyl)-3-pyridinyl)-4-fluorobenzenesulfonamide] | 0.011 | 0.0375 | 0.0068
COc1ncc(-c2ccc3nccc(N4CCOCC4)c3c2)cc1NS(C)(=O)=O [Example 119, N-(2-Methoxy-5-(4-morpholinoquinolin-6-yl)pyridin-3-yl)methanesulfonamide] | 0.0176 | 0.0448 | 0.0047
CN(C)S(=O)(=O)Nc1cc(N2CCc3nccc(N4CCOCC4)c3C2)cnc1Cl [Example 136, N′-(2-Chloro-5-(4-(4-morpholinyl)-7,8-dihydro-1,6-naphthyridin-6(5H)-yl)-3-pyridinyl)-N,N-dimethylsulfamide] | 0.065 | 0.289 | 0.111
C[C@@H]1CN(c2ccnc3ccc(-c4cnc(Cl)c(NS(C)(=O)=O)c4)cc23)C[C@@H](C)O1 [Example 110, N-(2-chloro-5-(4-((2R,6R)-2,6-dimethyl-4-morpholinyl)-6-quinolinyl)-3-pyridinyl)methanesulfonamide] | 0.0051 | 0.0141 | 0.0063
CC(c1ccccc1)N1CCN(c2ccnc3ccc(-c4cnc(Cl)c(NS(C)(=O)=O)c4)cc23)CC1 (stereo not drawn) [Example 83, N-(2-chloro-5-(4-(4-(1-phenylethyl)-1-piperazinyl)-6-quinolinyl)-3-pyridinyl)methanesulfonamide] | 0.0821 | 0.758 | 0.0136
